Laboratory results as given in patent publication US20240384268A1, “Oligonucleotides” (Hudson Institute of Medical Research, priority 2021, published 2024).
In the oligonucleotide strings, read from the 5' end, every base follows the letter of its sugar. An asterisk marks phosphorothioate; unmarked linkages are phosphodiester. Other units and linkages are bracketed, terminal groups are in braces. A string of capitals states the bases alone. d = 2'-deoxy (DNA); m = 2'-O-methyl

What was measured:
cGAS [1] = target: T1, cGAS (Homo sapiens, UniProt Q8N884); assay: ISD70-driven IP-10 production in HT-29 cells, ELISA; assay type: cell-based; parameters: endogenous in cells; conditions: ISD70 24 h
Procedure: In such examples, inhibition of cGAS activity can be identified by observation of an overall decreased cGAS response of the cell population, or a lower proportion of cells having cGAS-positive activity as compared to positive control condition in which cells are treated with cGAS agonist in the absence of the oligonucleotide (or in the presence of an appropriate control inhibitory agent). In one example, THP-1 or HT-29 cells are transfected with ISD70 and incubated with an oligonucleotide. cGAS activity can then be determined by cytokine (e.g., IP-10 and/or IFNβ) expression (e.g., gene and/or protein expression) and/or secretion levels, such as by ELISA. A similar assay can be performed with LL171 cells transfected with ISD45. […] By way of example, cGAS enzymatic activity may be assessed in vitro using recombinant cGAS and then measuring activity thereof by way of a cGAMP ELISA.
For cGAS stimulations, cells were treated for indicated duration with ASOs, prior to transfection with ISD70 (human cells) or ISD45 (mouse cells) (the ASOs were not washed off prior to ISD transfection unless otherwise indicated). The cGAS ligands ISD45 (Stetson and Medzhitov, 2006) and ISD70 (also known as VACV-70 (Unterholzner et al., 2010)) (Table 1) were resuspended as follows: 5 1d of sense and 5 μl of antisense strands at 10 μg/μl were added to 90 μl PBS under sterile conditions, heated at 75° C. for 30 min, prior to letting cool down at room temperature and aliquoting (stock at 1 μg/1 l). The ISDs were transfected at a concentration of […] at a ratio of 1 μg:1 μl with Lipofectamine 2000 in Opti-MEM (Thermo Fisher Scientific). HEK-TLR3, HEK-TLR7 and […] were treated with indicated concentration of ASOs for 20-50 min, prior to stimulation with poly(I:C) (Invivogen), R848 (Invivogen), Motolimod (MedChemExpress) and the Class B CpG oligonucleotides ODN 2006 (synthesised by IDT and resuspended in RNase-free TE buffer [Table 1]), respectively. The TLR2/1 agonist PAM3CSK4 (Invivogen), the TLR4 agonist lipopolysaccharide (Invivogen), the Class B CpG oligonucleotides ODN 1826 (synthesised by IDT and resuspended in RNase-free TE buffer), the mouse Sting agonist DMXAA (Cayman) and the human STING agonist (compound #3 from (Raanjulu et al., 2018), referred to as GSK herein—kind gift from Cancer Therapeutics CRC, Australia) were used at indicated concentrations. Aspirin (Sigma—A2093) was resuspended in pure medium to 10 mM, filter sterilised and added to the cells at 2 mM final. All ASOs were synthesised by Integrated DNA Technologies (IDT), and resuspended in RNase-free TE buffer, pH 8.0 (Thermo Fisher Scientific). Cell viability was assessed by adding 1× fresh resazurin solution to the wells (10λ solution made up with 7 mg resazurin [Sigma—R7017] dissolved in 3.5 ml PBS, sterile filtered at […]) for 4 h, prior to reading at with a Fluostar OPTIMA (BMG LABTECH) plate-reader (fluorescence: Excitation 535 nm, Emission 590); wells with medium only and 1× resazurin were used as blanks.
Human IP-10 and IFN-β levels were measured using supernatants from the different cultures and were quantified using IP-10 (BD Biosciences, #550926) or IFN-β (PBL assay science, #41415-1) ELISA kits respectively, according to the manufacturers' protocol. Tetramethylbenzidine substrate (Thermo Fisher Scientific) was used for quantification of the cytokines on a Fluostar OPTIMA (BMG LABTECH) plate-reader.

THP-1 and HT-29 cells = assay: Cell viability, resazurin; conditions: THP-1 100 nM, HT-29 187.5 nM; 6 h, with or without ISD70 overnight
cGAS [2] = target: cGAS (Mus musculus, UniProt Q8C6L5); assay: ISD-driven IP-10 production in immortalised mouse BMDMs; assay type: cell-based; parameters: endogenous in cells; host or cells: immortalised wild-type mouse bone marrow macrophages (iBMDMs); conditions: iBMDMs; 500 nM ASO; ISD overnight
cGAS [3] = target: T1, cGAS; assay: IFN-driven gene expression in BJ hTERT SV40T fibroblasts (constitutive cGAS activation), RT-qPCR; conditions: ASO transfected 20-100 nM overnight

T1 sequence (Q8N884 whole entry): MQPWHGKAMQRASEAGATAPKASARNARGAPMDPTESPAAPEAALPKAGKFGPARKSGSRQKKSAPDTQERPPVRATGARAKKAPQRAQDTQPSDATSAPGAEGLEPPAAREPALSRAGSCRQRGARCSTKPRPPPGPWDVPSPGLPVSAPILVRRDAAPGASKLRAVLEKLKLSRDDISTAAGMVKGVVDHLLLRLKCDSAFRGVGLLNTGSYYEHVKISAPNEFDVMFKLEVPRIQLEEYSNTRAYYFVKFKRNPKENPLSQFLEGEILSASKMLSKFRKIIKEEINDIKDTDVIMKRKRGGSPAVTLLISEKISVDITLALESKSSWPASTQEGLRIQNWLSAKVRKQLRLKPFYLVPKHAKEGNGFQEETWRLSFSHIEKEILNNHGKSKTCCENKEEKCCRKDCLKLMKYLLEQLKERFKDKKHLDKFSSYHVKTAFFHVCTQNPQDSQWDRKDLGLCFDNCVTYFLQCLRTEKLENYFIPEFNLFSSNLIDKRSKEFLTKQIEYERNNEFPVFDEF
cGAS (Mus musculus, UniProt Q8C6L5), sequence (Q8C6L5 whole entry): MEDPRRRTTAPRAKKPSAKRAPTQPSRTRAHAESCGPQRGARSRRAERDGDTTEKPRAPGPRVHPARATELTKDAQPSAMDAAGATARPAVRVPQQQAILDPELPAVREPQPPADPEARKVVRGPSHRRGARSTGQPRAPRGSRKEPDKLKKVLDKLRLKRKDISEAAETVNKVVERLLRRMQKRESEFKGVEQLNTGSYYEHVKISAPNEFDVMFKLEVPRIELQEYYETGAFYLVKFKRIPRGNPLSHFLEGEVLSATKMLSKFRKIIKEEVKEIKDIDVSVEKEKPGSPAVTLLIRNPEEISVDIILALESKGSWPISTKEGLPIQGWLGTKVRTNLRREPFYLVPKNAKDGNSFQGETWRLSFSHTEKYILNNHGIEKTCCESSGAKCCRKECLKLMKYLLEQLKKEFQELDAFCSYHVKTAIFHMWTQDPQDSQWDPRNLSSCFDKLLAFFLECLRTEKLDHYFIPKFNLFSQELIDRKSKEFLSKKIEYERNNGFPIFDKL

In the case of “mG*mC*mG*mG*mU*A*T*C*C*A*T*G*T*C*C*mC*mA*mG*mG*mC (mG*mC*mG*mG*mU*dA*dT*dC*dC*dA*dT*dG*dT*dC*dC*mC*mA*mG*mG*mC; antisense) [C2-Mut1]”, the “inhibition of ISD70-dependent IP-10 production (in words)” value (cGAS [1]; 187.5 nM ASO overnight) is reported as “most inhibitory sequence of ISD70 sensing”, the “effect on ISD70-induced IP-10 production at low dose (in words)” value (cGAS [1]; ASO overnight at 125 nM (62.5-125 nM)) is reported as “increased inhibitory activity” and the cell viability (THP-1 and HT-29 cells) is reported as “did not significantly impact cell viability”. For the same substance, the “ISD-induced IP-10 in immortalised mouse BMDMs (in words)” value (cGAS [2]) was “significantly impacting ISD sensing” and the “inhibition of constitutively expressed ISGs (IFIT1, IFIT2, IFI44; in words)” value (cGAS [3]) was “significantly more potent than its two nucleotide variant C2-Mut1v3”.
